Data from ChEMBL document CHEMBL4396887, “Five-Membered N-Heterocyclic Scaffolds as Novel Amino Bioisosteres at γ-Aminobutyric Acid (GABA) Type A Receptors and GABA Transporters” (J Med Chem, 2019).
The source made the active and inactive calls. The calls are words filed in the database; no cut-off is given here.

Experiments:
[1] = target: T1, GABA-A receptor; alpha-1/beta-2/gamma-2 (Homo sapiens, UniProt P14867+P18507+P47870); assay: Agonist activity at recombinant human GABA-A alpha1beta2gamma2S receptor transiently expressed in human tsA201 cells incubated for 30 mins and measured up to 90 secs by FMP dye based FLIPR membrane potential blue assay; type: cell-based
T1 sequence (P14867 whole entry): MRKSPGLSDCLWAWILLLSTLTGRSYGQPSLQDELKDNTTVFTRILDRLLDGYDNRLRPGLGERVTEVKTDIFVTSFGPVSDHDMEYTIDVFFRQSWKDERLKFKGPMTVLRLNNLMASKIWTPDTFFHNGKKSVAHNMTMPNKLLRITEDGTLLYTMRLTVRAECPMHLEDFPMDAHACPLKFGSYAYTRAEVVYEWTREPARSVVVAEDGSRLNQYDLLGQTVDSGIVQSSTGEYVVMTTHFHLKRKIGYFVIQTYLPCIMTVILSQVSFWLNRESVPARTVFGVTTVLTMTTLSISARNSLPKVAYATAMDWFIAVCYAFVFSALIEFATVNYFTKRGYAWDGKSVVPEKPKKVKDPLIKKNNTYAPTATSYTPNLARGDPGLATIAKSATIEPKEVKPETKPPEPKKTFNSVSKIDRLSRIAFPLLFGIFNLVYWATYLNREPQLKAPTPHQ
T1 sequence (P47870 whole entry): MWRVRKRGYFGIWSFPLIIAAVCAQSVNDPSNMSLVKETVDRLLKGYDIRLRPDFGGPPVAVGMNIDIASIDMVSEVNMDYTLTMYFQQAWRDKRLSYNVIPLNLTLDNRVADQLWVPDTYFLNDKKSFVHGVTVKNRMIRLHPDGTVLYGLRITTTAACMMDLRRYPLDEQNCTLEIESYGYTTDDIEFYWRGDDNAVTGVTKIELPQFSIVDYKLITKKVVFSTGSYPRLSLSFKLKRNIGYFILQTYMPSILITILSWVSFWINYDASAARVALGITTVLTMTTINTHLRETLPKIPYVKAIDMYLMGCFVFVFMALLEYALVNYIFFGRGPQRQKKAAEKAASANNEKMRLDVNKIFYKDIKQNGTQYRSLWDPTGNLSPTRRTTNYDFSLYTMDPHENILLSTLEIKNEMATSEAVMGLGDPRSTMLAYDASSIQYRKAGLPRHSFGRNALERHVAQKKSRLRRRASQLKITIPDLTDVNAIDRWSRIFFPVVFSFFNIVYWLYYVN
T1 sequence (P18507 whole entry): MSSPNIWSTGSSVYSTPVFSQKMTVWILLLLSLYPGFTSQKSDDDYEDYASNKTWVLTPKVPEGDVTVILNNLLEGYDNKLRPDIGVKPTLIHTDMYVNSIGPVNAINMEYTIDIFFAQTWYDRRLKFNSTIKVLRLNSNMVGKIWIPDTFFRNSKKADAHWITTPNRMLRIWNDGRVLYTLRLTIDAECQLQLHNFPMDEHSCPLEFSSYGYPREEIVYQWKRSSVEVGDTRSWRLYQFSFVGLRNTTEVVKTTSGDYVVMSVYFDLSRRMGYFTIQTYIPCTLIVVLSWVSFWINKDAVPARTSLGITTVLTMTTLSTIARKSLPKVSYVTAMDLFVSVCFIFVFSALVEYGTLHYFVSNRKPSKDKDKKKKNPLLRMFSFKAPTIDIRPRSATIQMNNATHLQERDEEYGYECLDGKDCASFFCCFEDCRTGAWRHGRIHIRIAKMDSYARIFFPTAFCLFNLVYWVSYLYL

[2] = target: Sodium- and chloride-dependent GABA transporter 1 (Homo sapiens, UniProt P30531); type: cell-based
Sodium- and chloride-dependent GABA transporter 1, sequence (P30531 whole entry): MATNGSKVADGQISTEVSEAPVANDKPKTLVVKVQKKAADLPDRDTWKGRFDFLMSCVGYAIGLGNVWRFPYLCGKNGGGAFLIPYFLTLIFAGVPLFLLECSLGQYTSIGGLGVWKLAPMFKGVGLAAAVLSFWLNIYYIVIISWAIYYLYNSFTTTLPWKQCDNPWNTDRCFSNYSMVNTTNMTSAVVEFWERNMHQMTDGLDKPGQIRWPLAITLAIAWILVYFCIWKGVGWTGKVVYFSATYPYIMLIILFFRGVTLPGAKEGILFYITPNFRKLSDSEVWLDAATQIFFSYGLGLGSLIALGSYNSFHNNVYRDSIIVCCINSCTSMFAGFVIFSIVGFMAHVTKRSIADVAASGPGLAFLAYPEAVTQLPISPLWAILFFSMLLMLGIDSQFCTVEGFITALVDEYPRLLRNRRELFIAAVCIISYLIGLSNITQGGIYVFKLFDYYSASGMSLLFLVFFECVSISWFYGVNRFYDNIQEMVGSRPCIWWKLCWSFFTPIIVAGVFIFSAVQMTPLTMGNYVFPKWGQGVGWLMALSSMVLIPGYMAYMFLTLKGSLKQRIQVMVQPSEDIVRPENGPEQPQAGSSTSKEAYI

[3] = target: T2, Gamma-aminobutyric acid receptor subunit alpha-5/beta-2/gamma-2 (Homo sapiens, UniProt P18507+P31644+P47870); assay: Agonist activity at recombinant human GABA-A alpha5beta2gamma2S receptor transiently expressed in human tsA201 cells incubated for 30 mins and measured up to 90 secs by FMP dye based FLIPR membrane potential blue assay; type: cell-based
T2 sequence (P47870 whole entry): T1 sequence (P47870 whole entry)
T2 sequence (P18507 whole entry): T1 sequence (P18507 whole entry)
T2 sequence (P31644 whole entry): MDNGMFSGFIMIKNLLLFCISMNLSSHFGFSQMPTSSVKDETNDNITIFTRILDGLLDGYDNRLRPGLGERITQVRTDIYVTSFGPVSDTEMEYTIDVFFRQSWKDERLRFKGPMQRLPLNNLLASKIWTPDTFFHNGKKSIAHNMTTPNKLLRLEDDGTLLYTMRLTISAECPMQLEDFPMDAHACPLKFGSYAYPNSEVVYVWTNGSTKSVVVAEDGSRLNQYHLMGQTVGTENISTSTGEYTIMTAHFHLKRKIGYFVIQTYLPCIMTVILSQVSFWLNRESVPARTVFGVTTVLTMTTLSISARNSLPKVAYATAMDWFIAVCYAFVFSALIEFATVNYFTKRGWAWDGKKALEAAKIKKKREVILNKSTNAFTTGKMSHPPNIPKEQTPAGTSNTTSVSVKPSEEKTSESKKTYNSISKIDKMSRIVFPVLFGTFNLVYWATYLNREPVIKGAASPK

[4] = target: GABA-A receptor; anion channel; assay: Displacement of [3H]muscimol from GABA(A) receptor in Sprague-Dawley rat cortical synaptic membranes by liquid scintillation counting
[5] = target: T3, Sodium- and chloride-dependent GABA transporter 3 (Homo sapiens, UniProt P48066); assay: Inhibition of human GAT3 expressed in Flp-In CHO cells assessed as reduction in [3H]GABA uptake incubated for 3 mins by liquid scintillation counting method; type: cell-based
T3 sequence (P48066 whole entry): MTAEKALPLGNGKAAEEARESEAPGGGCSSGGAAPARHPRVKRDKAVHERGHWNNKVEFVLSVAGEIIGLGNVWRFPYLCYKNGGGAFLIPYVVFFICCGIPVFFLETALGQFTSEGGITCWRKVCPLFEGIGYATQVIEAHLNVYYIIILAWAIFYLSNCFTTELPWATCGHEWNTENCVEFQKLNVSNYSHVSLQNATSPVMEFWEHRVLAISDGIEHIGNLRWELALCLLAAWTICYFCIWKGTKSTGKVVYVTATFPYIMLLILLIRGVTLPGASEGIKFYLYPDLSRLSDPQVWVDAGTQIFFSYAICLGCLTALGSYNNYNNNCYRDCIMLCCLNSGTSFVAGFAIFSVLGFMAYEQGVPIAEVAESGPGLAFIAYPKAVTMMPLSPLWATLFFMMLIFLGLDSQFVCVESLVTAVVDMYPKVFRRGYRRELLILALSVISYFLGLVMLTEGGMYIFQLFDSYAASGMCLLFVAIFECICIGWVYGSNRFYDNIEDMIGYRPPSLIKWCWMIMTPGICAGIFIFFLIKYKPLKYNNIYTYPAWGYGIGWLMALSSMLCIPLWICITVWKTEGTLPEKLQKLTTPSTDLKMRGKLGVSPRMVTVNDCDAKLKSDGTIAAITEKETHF

[6] = target: Gamma-aminobutyric acid receptor subunit alpha-4/beta-2/gamma-2 (Homo sapiens, UniProt P47870+P18507+P48169); assay: Agonist activity at recombinant human GABA-A alpha4beta2gamma2S receptor transiently expressed in human tsA201 cells incubated for 30 mins and measured up to 90 secs by FMP dye based FLIPR membrane potential blue assay; type: cell-based
Gamma-aminobutyric acid receptor subunit alpha-4/beta-2/gamma-2, sequence (P48169 whole entry, one chain of several): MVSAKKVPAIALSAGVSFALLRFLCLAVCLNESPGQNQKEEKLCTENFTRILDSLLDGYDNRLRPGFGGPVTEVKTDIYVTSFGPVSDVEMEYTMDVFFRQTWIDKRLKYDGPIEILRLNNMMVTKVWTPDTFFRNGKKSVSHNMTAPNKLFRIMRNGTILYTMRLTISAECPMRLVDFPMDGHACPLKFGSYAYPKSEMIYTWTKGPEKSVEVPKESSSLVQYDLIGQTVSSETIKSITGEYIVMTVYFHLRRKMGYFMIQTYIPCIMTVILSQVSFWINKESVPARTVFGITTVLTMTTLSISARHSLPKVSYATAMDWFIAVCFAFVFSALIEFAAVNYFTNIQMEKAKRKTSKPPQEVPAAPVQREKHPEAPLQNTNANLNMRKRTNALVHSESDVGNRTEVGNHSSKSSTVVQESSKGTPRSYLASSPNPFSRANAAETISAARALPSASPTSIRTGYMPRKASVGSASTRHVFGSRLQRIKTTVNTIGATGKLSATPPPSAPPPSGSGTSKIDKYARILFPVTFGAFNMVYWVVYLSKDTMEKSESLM

| Structure (SMILES) | EC50 [1] [µM] | IC50 ([2]; read-out: IC50) [µM] | IC50 ([2]; read-out: pIC50 (converted)) [µM] | EC50 [3] [µM] | Ki [4] [µM] | IC50 ([5]; read-out: IC50) [µM] | IC50 ([5]; read-out: pIC50 (converted)) [µM] | EC50 [6] | pKi [4] | pEC50 [6] |
| --- | --- | --- | --- | --- | --- | --- | --- | --- | --- | --- |
| NC1=NC(CC(=O)O)CS1 (centres undefined) | 1.8 | 179 | 158 | 0.22 | 0.11 | 151 | 126 | – | – | – |
| CC(C(=O)O)C1CSC(N)=N1 (stereo in doubt; l-10b) | – | > 100 | – | 11 | 1.3 | > 100 | – | Not Active | 5.91 | – |
| C[C@@H](C(=O)O)[C@@H]1CSC(N)=N1 (relative stereo) | 9.7 | > 100 | – | 3 | 0.29 | > 100 | – | Not Active | – | inactive |
| NC1=NC(CC(=O)O)CN1 (centres undefined) | 11 | 96.9 | – | 1.6 | 0.45 | 43.7 | – | – | 6.37 | – |
| O=C(O)CC1CNC=N1 (centres undefined) | 7.6 | 71.4 | – | 0.79 | 0.09 | 1.9 | – | – | – | – |
| O=C(O)C[C@@H]1CCNC1 | – | 3.9 | 3.16 | 24 | 5.6 | 2.7 | – | Not Active | – | inactive |
| C[C@H]1SC(N)=N[C@@H]1CC(=O)O (relative stereo) | – | > 100 | – | 17 | 12 | > 100 | – | Not Active | 4.96 | inactive |
| C[C@@H]1SC(N)=N[C@@H]1CC(=O)O (relative stereo) | – | > 100 | – | 8.2 | 5.5 | > 100 | – | Not Active | – | inactive |
| O=C(O)C[C@H]1CCNC1 | 12 | 3.6 | 2.51 | 0.94 | 0.21 | 2.3 | – | – | – | – |
| C[C@@H](C(=O)O)[C@H]1CSC(N)=N1 (relative stereo) | 48 | > 100 | – | 2.6 | 1.6 | > 100 | – | Not Active | – | inactive |
| CC(C(=O)O)C1CSC(N)=N1 (stereo in doubt; l-10a) | 25 | > 100 | – | 2.7 | 0.33 | > 100 | – | – | – | – |
